Reference: PubChem BioAssay (NCI)
“And” between values parts separate entries of the source, which are not always exact repeats. Identical values can stand only once.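 Briefly, cells in 96-well plates were exposed to five compound concentrations for 48 h, and endpoints were estimated by linear interpolation. Here, GI50 denotes the concentration required for 50% inhibition of growth. At the TGI there is no net growth.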

How the values were obtained:
Experiment in all cases: NCI-60 cell line screen, 48 h
[1] = tested on: MALME-3M melanoma
[2] = tested on: A498 renal
[3] = tested on: U251 CNS
[4] = tested on: COLO 205 colon
[5] = tested on: SK-MEL-2 melanoma
[6] = tested on: SW-620 colon
[7] = tested on: RXF 393 renal
[8] = tested on: SK-MEL-28 melanoma
[9] = tested on: SN12C renal
[10] = tested on: MDA-N

Row | Structure (SMILES) | TGI [1] | TGI [2] [µM] | TGI [3] | TGI [4] | TGI [5] | TGI [6] | TGI [7] [µM] | TGI [8] | TGI [9] | TGI [10] | GI50 [1] [µM] | GI50 [2] [µM] | GI50 [5] [µM] | GI50 [6] [µM] | GI50 [7] [µM] | GI50 [8] [µM] | GI50 [9] [µM] | GI50 [3] [µM] | GI50 [4] [µM]
1 | Cn1nc2ccc(Nc3cc(=O)[nH]c4ccc5nn(C)nc5c34)cc2n1 | > 100 µM | > 100 | > 100 µM | > 100 µM | > 100 µM | > 100 µM | > 100 | > 100 µM | > 100 µM | – | – | – | – | – | – | – | – | – | –
2 | Cc1cc(C)c2c(c1)CC1(Cc3cc(C)c(C)cc3C1=O)C2=O (stereo not drawn) | > 100 µM | > 100 | > 100 µM | > 100 µM | > 100 µM | > 100 µM | > 100 | > 100 µM | > 100 µM | – | – | – | – | – | – | – | – | – | –
3 | O=C1COc2cc(N3CCN(c4cccc(C(F)(F)F)c4)CC3)ccc2N1 | – | – | > 100 µM | > 100 µM | > 100 µM | > 100 µM | – | > 100 µM | > 100 µM | > 100 µM | – | – | – | – | – | – | – | – | –
4 | O=C(O)CCC(=O)OCN1C(=O)C2C3C=CC(C2C1=O)C1C2C(=O)N(COC(=O)CCC(=O)O)C(=O)C2C31 (stereo not drawn) | > 100 µM | > 100 | > 100 µM | > 100 µM | > 100 µM | > 68.4 µM | > 100 | > 100 µM | > 100 µM | – | – | – | – | – | – | – | – | – | –
5 | O=c1c2cc(C(F)(F)F)ccc2sc2c(NCCCNCCO)nc3ccccc3c12 | 3.09 µM | 3.06 | – | – | 3.75 µM | 2.98 µM | 2.82 | 3.32 µM | 3.12 µM | – | 1.59 | 1.61 | 1.92 | 1.54 | 1.4 | 1.87 | 1.64 | – | –
6 | O=C(CCN1CCOCC1)/C(=C/c1ccccc1)c1ccccc1 | 8.74 µM | 23.3 | 12.9 µM | 14.3 µM | 21.5 µM | 6.9 µM | 3.4 | 20.3 µM | 14.5 µM | – | – | – | – | – | – | – | – | – | –
7 | O=c1[nH]c(=O)n(C2CC(O)C(CO)O2)cc1Oc1ccccc1 (stereo not drawn) | > 100 µM | – | > 100 µM | > 100 µM | – | – | > 100 | > 100 µM | > 100 µM | > 100 µM | – | – | – | – | – | – | – | – | –
8 | CCOC(=O)c1ccc(Nc2nc3ccccc3nc2-c2cccs2)cc1 | > 100 µM | – | > 100 µM | > 100 µM | – | – | > 100 | > 100 µM | 99.3 µM | > 100 µM | – | – | – | – | – | – | – | – | –
9 | CN(Cc1cnc2nc(N)nc(N)c2n1)c1ccc(C(=O)NC23CC4CC(CC(C4)C2)C3)cc1 | 26.3 µM | > 100 | 44.3 µM | 24 µM | 23.6 µM | > 100 µM | 40.4 | – | 56.8 µM | – | – | – | – | – | – | – | – | – | –
10 | CCC1(O)CC(OC2CC(N(C)C)C(OC3CC(O)C(OC4OC(C)C(=O)C=C4N)C(C)O3)C(C)O2)c2c(cc3c(c2O)C(=O)c2c(O)cccc2C3=O)C1C(=O)OC (stereo not drawn) | 0.233 µM and 0.137 µM | – | 1.5 µM and 1.55 µM | 0.338 µM and 0.766 µM | 0.104 µM and 0.0118 µM | 1.76 µM and 1.2 µM | – | 0.363 µM and 0.189 µM | 1.51 µM and 2.29 µM | 0.207 µM and 0.139 µM | 0.0208 | – | – | – | – | – | 0.0924 | – | –
11 | COC(=O)C1CC2(C)C=CC1N(C(=O)OCc1ccccc1)C2 (stereo not drawn) | > 100 µM | > 100 | > 100 µM | > 100 µM | > 100 µM | > 100 µM | > 100 | > 100 µM | > 100 µM | – | – | – | – | – | – | – | – | – | –
12 | COc1ccc(-n2c(=O)c3[nH]c(=S)[nH]c3n(-c3ccc(OC)cc3)c2=S)cc1 | – | > 100 | > 100 µM | > 100 µM | > 100 µM | > 100 µM | > 100 | > 100 µM | > 100 µM | – | – | – | – | – | – | – | – | – | –
13 | Cc1c(CNc2ccc(C(=O)NC(CCCNC(=O)c3ccccc3C(=O)O)C(=O)O)cc2)cnc2nc(N)nc(N)c12 (stereo not drawn) | – | > 100 | > 100 µM | 4.74 µM | – | > 100 µM | 2.15 | – | > 100 µM | – | – | > 100 | > 100 | – | 0.279 | – | – | 0.00285 | 1.72
14 | C#C[C@]1(O)CC[C@H]2[C@@H]3CCC4=C/C(=N/NC(=O)c5cccc6c(=O)c7ccccc7[nH]c56)CCC4[C@H]3CC[C@@]21C (stereo partly drawn) | 68.1 µM | – | > 100 µM | > 100 µM | > 100 µM | > 100 µM | – | – | > 100 µM | > 100 µM | – | – | – | – | – | – | – | – | –
15 | C#CC[C@@]12CC(=O)C[C@@H]1CCC1(C2)OCCO1 (tested in a mixture with another compound) | > 100 µM | > 100 | > 100 µM | > 100 µM | > 100 µM | > 100 µM | > 100 | > 100 µM | > 100 µM | – | – | – | – | – | – | – | – | – | –
16 | C(/C=N/NC1=NCCCCN1)=N\NC1=NCCCCN1 | > 100 µM | – | > 100 µM | > 100 µM | – | > 100 µM | – | > 100 µM | > 100 µM | > 100 µM | – | – | – | – | – | – | – | – | –
17 | COC(=O)[C@H](Cc1c[nH]c2ccccc12)NP(=O)(OCCC#N)OCC1OC(n2cc(C)c(=O)[nH]c2=O)CC1N=[N+]=[N-] (stereo partly drawn) | > 100 µM | – | > 100 µM | > 100 µM | > 100 µM | > 100 µM | > 100 | – | > 100 µM | > 100 µM | – | – | – | – | – | – | – | – | –
